Measured values as given in patent publication US20250346642A1, “NEW SPLICE VARIANT ISOFORM OF VEGF” (CENTRE NATIONAL DE LA RECHERCHE SCIENTIFIQUE (CNRS), priority 2020, published 2025).

What was measured:
786-O cells [1] = test: 786-O experimental tumors in mice, anti-VEGFXXX/NF, bevacizumab or anti-KLH treatment (FIG. 12D-J); type: in vivo; conditions: 786-O tumors
Procedure: (E) The weight of 786-O tumors at the end of the experiment. (F) Quantification of Ki67 positive cells in 786-0 tumors. […] (G) Number of mature (CD31+, a-SMA+) vessels in the different tumor sections.
Plasma levels of VEGFXXX/NFand VEGF are increased in the VEGF bevacizumab-treated group. […] FIG. 13. A-D) The levels of VEGF and VEGF222/NF were evaluated in the plasma (just before sunitinib treatment) of 47 metastatic ccRCC patients. The third quartile was used as the cut-off to determine patients' groups, respectively 4500 […] for VEGF and VEGF222/NF. The plasma levels of VEGF (A and C) or VEGF222/NF (B and D) were correlated to PFS under first-line sunitinib treatment (A and B) or with OS (C and D). Kaplan-Meier method was used to produce survival curves and analyzes of censored data were performed using Cox models. Statistical significance (p values) is indicated.
Tumor sections (5-μm cryostat sections) were fixed in 4% paraformaldehyde for twenty minutes at room temperature and blocked in 1% donkey serum in Tris-buffered saline (TBS) for two hours. […] Preparations were mounted and analyzed with a Leica microscope (Leica DMI4000B) and counted at a 10× magnification. Results are expressed as the number of vessels per mm^2 of sections.

786-O cells [2] = test: 786-O experimental RCC tumors in NMRI mice, antibody treatment (FIG. 10); type: in vivo; conditions: intraperitoneal once a week for 6 weeks, 5 mg/kg
From the text: FIG. 10. VEGF222/NF inhibition delays tumor growth of experimental RCC. 3M of 786-O cells were subcutaneously grafted in the left flank of NMRI mice. […] Tumor volumes were monitored with a caliper for 50 days. ***P<0.001, ****P<0.0001 (Anova Test).
For generating control or polyclonal anti-VEGF222/NF antibodies, 6 weeks BALB/cJRj mice (n=10) were immunized either with KLH carrier protein or with specific peptides SEQ 1 and SEQ2 coupled to KLH as previously described (Guyot et al., 2017, Targeting the pro-angiogenic forms of VEGF or inhibiting their expression as anti-cancer strategies. Oncotarget 8, 9174-9188) IgG were purified of Protein G Sepharose column. All animal studies were approved in advance by the local animal care committee (Veterinary service and direction of sanitary and social action of Monaco, Dr H. Raps.)

Question: What does the source list for bevacizumab?
Answer: number of lymphatic vessels (LYVE1+) in tumors (786-O cells [1]): stimulated their development; size of tumors versus control group (786-O cells [1]): equivalent to those of the control group; tumor growth of 786-O experimental tumors (786-O cells [2]): did not
